ChEMBL document CHEMBL4819080, “Cannabidiol-dihydroartemisinin conjugates for ameliorating neuroinflammation with reduced cytotoxicity” (Bioorg Med Chem, 2021)
The source made the active and inactive calls. The rule behind the calls is not given here.

Tests used:
BV-2 [1] = test: Antiinflammatory activity in mouse BV-2 cells assessed as reduction in LPS-induced nitric oxide production incubated for 24 hrs by 2, 3-diaminonaphthalene based assay; assay type: functional, cell-based
BV-2 [2] = test: Cytotoxicity against mouse BV-2 cells assessed as reduction in cell viability upto 200 uM incubated for 24 hrs by crystal violet dye based assay; conditions: bv-2, 24 h
BV-2 [3] = test: Antiinflammatory activity in mouse BV-2 cells assessed as reduction in LPS-induced iNOS mRNA expression at 100 uM incubated for 6 hrs by qRT-PCR analysis; assay type: functional, cell-based
BV-2 [4] = test: Antiinflammatory activity in mouse BV-2 cells assessed as reduction in LPS-induced IL-1beta mRNA expression at 100 uM incubated for 6 hrs by qRT-PCR analysis; assay type: functional, cell-based
BV-2 [5] = test: Cytotoxicity against mouse BV-2 cells assessed as reduction in cell viability incubated for 24 hrs by crystal violet dye based assay; conditions: BV-2, 24 h
BV-2 [6] = test: Antiinflammatory activity in mouse BV-2 cells assessed as reduction in LPS-induced nitric oxide production incubated for 24 hrs in presence of DHA by 2, 3-diaminonaphthalene based assay; assay type: functional, cell-based
BV-2 [7] = test: Cytotoxicity against mouse BV-2 cells assessed as reduction in cell viability incubated for 24 hrs in presence of DHA by crystal violet dye based assay; conditions: bv-2, 24 h
BV-2 [8] = test: Inhibition of LPS-induced NF-kappaB activation in mouse BV-2 cells expressing luciferase gene at 5 to 100 uM incubated for 24 hrs by steady-glo luciferase assay; assay type: cell-based; conditions: dose 5-100 µM
BV-2 [9] = test: Antiinflammatory activity in mouse BV-2 cells assessed as reduction in LPS-induced iNOS mRNA expression incubated for 6 hrs by qRT-PCR analysis; assay type: functional, cell-based; conditions: dose 20-100 µM
BV-2 [10] = test: Antiinflammatory activity in mouse BV-2 cells assessed as reduction in LPS-induced IL-1beta mRNA expression incubated for 6 hrs by qRT-PCR analysis; assay type: functional, cell-based; conditions: dose 20-100 µM
BV-2 [11] = test: Inhibition of LPS-induced NF-kappaB activation in mouse BV-2 cells assessed as reduction in IRAK1 phosphorylation at 100 uM incubated for 1 hr by Western blot analysis; assay type: cell-based
BV-2 [12] = test: Inhibition of LPS-induced NF-kappaB activation in mouse BV-2 cells assessed as reduction in IKKalpha/beta phosphorylation at 100 uM incubated for 1 hr by Western blot analysis; assay type: cell-based
BV-2 [13] = test: Inhibition of LPS-induced NF-kappaB activation in mouse BV-2 cells assessed as reduction in NF-kappaB p65 phosphorylation at 100 uM incubated for 1 hr by Western blot analysis; assay type: cell-based
BV-2 [14] = test: Inhibition of LPS-induced MAPK activation in mouse BV-2 cells assessed as reduction in JNK phosphorylation at 100 uM incubated for 1 hr by Western blot analysis; assay type: cell-based
BV-2 [15] = test: Inhibition of LPS-induced MAPK activation in mouse BV-2 cells assessed as reduction in ERK phosphorylation at 100 uM incubated for 1 hr by Western blot analysis; assay type: cell-based
BV-2 [16] = test: Inhibition of LPS-induced MAPK activation in mouse BV-2 cells assessed as reduction in p38 phosphorylation at 100 uM incubated for 1 hr by Western blot analysis; assay type: cell-based
[17] = Mus musculus, BV-2, 24 h, read-out: IC50

Row | Compound | Activity (BV-2 [2]) | inhibition (BV-2 [3]) | inhibition (BV-2 [4]) | inhibition (BV-2 [1]) | IC50 (BV-2 [1]; [17]) [µM] | IC50 (BV-2 [5]) [µM] | further results
1 | C=C(C)[C@@H]1CCC(C)=C[C@H]1c1c(O)cc(CCCCC)cc1OCCCCO[C@H]1O[C@@H]2O[C@]3(C)CC[C@H]4[C@H](C)CC[C@@H]([C@H]1C)[C@@]24OO3 | Non-Toxic | inactive | inactive | – | – | – | IC50 (BV-2 [1]; bv-2): Not Active
2 | C=C(C)[C@@H]1CCC(C)=C[C@H]1c1c(O)cc(CCCCC)cc1OCCO[C@H]1O[C@@H]2O[C@]3(C)CC[C@H]4[C@H](C)CC[C@@H]([C@H]1C)[C@@]24OO3 | Non-Toxic | inactive | inactive | Dose-Dependent Effect | 55 | – | –
3 | C=C(C)[C@@H]1CCC(C)=C[C@H]1c1c(O)cc(CCCCC)cc1O [CANNABIDIOL] | – | – | – | – | 10.3 | 8 | inhibition (BV-2 [6]): Active; Activity (BV-2 [7]): Toxic
4 | C[C@H]1[C@@H](O)O[C@@H]2O[C@@]3(C)CC[C@H]4[C@H](C)CC[C@@H]1[C@@]24OO3 [ARTENIMOL] | – | – | – | – | 7.4 | 120 | –
5 | C=C(C)[C@@H]1CCC(C)=C[C@H]1c1c(O)cc(CCCCC)cc1OCCCO[C@H]1O[C@@H]2O[C@]3(C)CC[C@H]4[C@H](C)CC[C@@H]([C@H]1C)[C@@]24OO3 | Non-Toxic | – | – | Dose-Dependent Effect | 11.7 | – | inhibition (BV-2 [8]): Active; inhibition (BV-2 [9]): Dose-Dependent Effect; inhibition (BV-2 [10]): Dose-Dependent Effect; inhibition (BV-2 [11]): Active; inhibition (BV-2 [12]): Active; inhibition (BV-2 [13]): Active; inhibition (BV-2 [14]): inactive; inhibition (BV-2 [15]): inactive; inhibition (BV-2 [16]): inactive
